Laboratory results published in patent publication US8642622B2, “Piperidinyl compound as a modulator of chemokine receptor activity” (Bristol-Myers Squibb Company, priority 2010, dated 2014).

Key:
[1] = Human liver microsomal metabolism, Assay Conditions A; assay type: in vitro ADME; details: 0.5 μM compound, 10 minutes, 37° C.
Protocol: Test compound is received as a 3.5 mM stock solution in 100 percent DMSO. Compound is diluted to create a 50 μM acetonitrile (ACN) solution containing 1.4% DMSO, which is then used as a 100× stock for incubation with microsomes. Each compound is tested in duplicate separately in each of three species in the Metabolic Stability-Human, Rat, and Mouse assay suite or as individual species in the Metabolic Stability-Dog or Metabolic Stability-Monkey suites. Compound, NADPH and liver microsome solutions are combined for incubation in three steps:
152 μL of liver microsome suspension, protein concentration of 1.1 mg/mL in 100 mM NaPi, pH 7.4, 6.6 mM MgCl2 buffer, is pre-warmed at 37° C.
• 1) 1.7 μL of 50 μM compound (98.6% ACN, 1.4% DMSO) is added to the same tube and pre-incubated at 37° C. for 5 minutes. • 2) The reaction is initiated by the addition of 17 μL of pre-warmed 10 mM NADPH solution in 100 mM NaPi, pH 7.4. • 3) Reaction components are mixed well, and 75 μL are immediately transferred into 150 μl quench/stop solution (zero-time point, To). Reactions are incubated at 37° C. for 10 minutes and then an additional 75 μL aliquot is transferred into 150 μL quench solution. Acetonitrile containing 100 μM DMN (a UV standard for injection quality control), is used as the quench solution to terminate metabolic reactions. • 4) Quenched mixtures are centrifuged at 1500 rpm (˜500×g) in an Allegra X-12 centrifuge, SX4750 rotor (Beckman Coulter Inc., Fullerton, Calif.) for fifteen minutes to pellet denatured microsomes. A volume of 90 μL of supernatant extract, containing the mixture of parent compound and its metabolites, is then transferred to a separate 96-well plate for UV-LC/MS-MS analysis to determine the percent of parent compound that is remaining in the mixture.

[2] = Human liver microsomal metabolism, Assay Conditions B; assay type: in vitro ADME; details: 3 μM compound, 10 minutes, 37° C.
Protocol: Test compound is received as 20 mM in DMSO. Compound is diluted to create a 300 μM acetonitrile (ACN) solution containing 1.5% DMSO, which is then used as a 100× stock for incubation with microsomes. Each compound is tested in duplicate separately in each of three species in the Metabolic Stability-Human, Rat, Mouse assay suite or individual species in the Metabolic Stability-Dog or Metabolic Stability-Monkey suites. Compound, NADPH and liver microsome solutions are combined for incubation in three steps: • 1. 450 μL of liver microsome suspension, protein concentration of 1 mg/mL in 100 mM NaPi, pH 7.4, 6.6 mM MgCl2 buffer, are pre-warmed at 37° C. • 2. […] of 300 μM compound (98.5% CAN, 1.5% DMSO) is added to the same tube. • 3. The reaction is initiated by the addition of 50 μL of pre-warmed 5 mM NADPH solution in 100 mM NaPi, pH 7.4.
Reaction components are mixed well and 150 μL removed to quench/stop solution immediately for the zero-minute time point. Reactions are incubated at 37° C. for 10 minutes and then an additional 150 μL removed from incubation. Aliquots removed are combined with 300 μL ACN which contains 100 μM DMN as a UV standard for detection.
Quenched mixtures are centrifuged at 1500 rpm (˜500×g) in an Allegra X-12 centrifuge, SX4750 rotor (Beckman Coulter Inc., Fullerton, Calif.) for fifteen minutes to pellet denatured microsomes. A volume of 110 μl of supernatant extract, containing the mixture of parent compound and its metabolites, is then transferred to a separate 96-well plate for UV-LC/MS-MS analysis to determine the percent of parent compound that is remaining in the mixture.

[3] = Single-dose pharmacokinetics in rats; assay type: in vivo; details: male, Sprague-Dawley, rat, plasma; for clearance: intravenous; for bioavailability: po
Protocol: Serial blood samples were collected for all studies from the jugular vein at various time points post dose (0.17 (or 0.25 for oral), 0.5, 0.75, 1, 2, 4, 6, 8 and 24 h, for example). Plasma samples were analyzed by LC-MS/MS.
Additional studies evaluating suspensions of crystalline drug substance in aqueous medium were performed as described above.

[4] = biological target: T1, Human PXR (Homo sapiens, UniProt O75469); test: PXR transactivation assay (HepG2, CYP3A-Luc reporter); assay type: cell-based; details: reported as EC60
T1 construct: expressed in transfected cells; host or cells: HepG2
T1 sequence (O75469 1-434): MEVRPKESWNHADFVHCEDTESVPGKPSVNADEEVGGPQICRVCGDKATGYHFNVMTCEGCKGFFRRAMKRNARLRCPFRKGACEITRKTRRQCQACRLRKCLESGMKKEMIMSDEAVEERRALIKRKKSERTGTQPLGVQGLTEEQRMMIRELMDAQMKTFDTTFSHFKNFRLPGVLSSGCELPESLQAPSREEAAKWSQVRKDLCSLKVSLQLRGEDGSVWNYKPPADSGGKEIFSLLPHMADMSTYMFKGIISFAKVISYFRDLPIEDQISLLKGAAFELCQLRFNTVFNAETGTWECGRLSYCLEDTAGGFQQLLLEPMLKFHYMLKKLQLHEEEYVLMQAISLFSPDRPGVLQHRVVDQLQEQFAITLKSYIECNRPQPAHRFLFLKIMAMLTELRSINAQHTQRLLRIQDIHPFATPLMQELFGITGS
Excerpt: The cell culture medium used is DMEM. […] Charcoal/dextran treated fetal bovine serum (FBS) was purchased from Hyclone (Logan, Utah). HepG2 cells were obtained from ATCC (Manassas, Va.). Human PXR-pcDNA3 and luciferase reporter containing CYP3A4 promoter, CYP3A-Luc, were generated at Bristol-Myers Squibb. White tissue culture (TC)-surface 384-well plates were purchased from Perkin Elmer (Boston, Mass.). Luciferase substrate (Steady-Glo) was purchased from Promega (Madison, Wis.). Control compounds rifampicin, mifepristone, and sulfinpyrazone were purchased from Sigma (St. Louis, Mo.).
Culture of HepG2 cells is performed in T175 flasks using DMEM containing 10% FBS. The transfection mixture contains 1 μg/mL of PXR-pcDNA3 plasmid DNA, 20 μg/ml of Cyp3A-Luc plasmid DNA, 90 μL/mL of Lipofectamine 2000, and serum-free medium. After incubating at room temperature for 20 minutes, the transfection mixture (1 ml per flask) is applied to the cells in fresh medium (20 mL per flask), and flasks incubated at 37° C. (5% CO2) overnight.
The flasks are then tapped vigorously to break up cell aggregates. After the addition of 8 mL of DMEM containing 5% charcoal/dextran-treated FBS, the entire mixture is transferred to conical tubes. Cells are then centrifuged at 1000 rpm for 5 minutes. Cell pellets are resuspended to a final count of ˜7×10^6 cells/mL in freezing media (DMEM containing 20% serum and 10% DMSO). The cell suspension is aliquoted into 15-mL polypropylene tubes, 5 mL per tube. Cells are slowly frozen by placing in a Styrofoam-insulated container at −80° C. overnight. Vials are transferred to an Ultracold (−140° C.) freezer after 24 hours for long-term storage.
Vials of cryopreserved cells are thawed rapidly in a warm water bath for five minutes. Cells are pooled and diluted to 50 mL in a 50-mL conical vial. The thawed cells are centrifuged at 1500 rpm for 5 minutes to collect the cells and the supernatant discarded. Cells are then resuspended in fresh Media II (DMEM containing 5% charcoal/dextran-treated FBS, 1% Penicillin/Streptomycin, 100 μM Non-essential Amino Acids, 1 mM Sodium Pyruvate, and 2 mM L-Glutamine), counted using the Guava Cell Counter, and diluted to 1.6×10^5 cells/ml in the same media.
Fifty microliters of cell mixture is added to wells in columns 1-23 of white tissue-culture treated 384-well plates containing 0.25 μL of test compound dissolved in 100% DMSO. Fifty microliters of Media II is added to wells in column 24. The plates are incubated at 37° C. (5% CO2) for 24 hours, then 5 μL of Alamar Blue reagent (Trek Diagnostics, Cat #00-100) is added to each well. Plates are then incubated an additional two hours at 37° C., 5% CO2 and then one hour at room temperature. […] After the fluorescence is measured, 25 μL of luciferase substrate (Steady-Glo, Promega) is added to each well. The plates are incubated for fifteen minutes at room temperature, after which the luminescence is read on a PheraStar (BMG Labtech) plate reader.
Rifampicin (10 μM), a well-known agonist of PXR, is included in each plate as an internal standard and positive control. The data is then expressed as percent control (% CTRL), where the control signal is the signal from the 10 μM rifampicin and the blank signal is that from the DMSO vehicle. % CTRL=((Compound signal−Blank signal)/(Control signal−Blank signal))*100
The EC50 is defined as the concentration corresponding to half of the maximal response derived from the fitted 20-point curve as determined using a four-parameter logistic regression model. Additionally, compounds may also be reported as EC20 or EC60.

[5] = biological target: T2, human cardiac sodium channel, SCNSA (Homo sapiens, UniProt Q14524); test: Sodium channel whole-cell patch-clamp assay; assay type: cell-based; details: HEK293, HEK-293, protein-free buffer, read-out: Na channel, % inh
T2 construct: expressed in transfected cells; host or cells: HEK-293
T2 sequence (Q14524 whole entry): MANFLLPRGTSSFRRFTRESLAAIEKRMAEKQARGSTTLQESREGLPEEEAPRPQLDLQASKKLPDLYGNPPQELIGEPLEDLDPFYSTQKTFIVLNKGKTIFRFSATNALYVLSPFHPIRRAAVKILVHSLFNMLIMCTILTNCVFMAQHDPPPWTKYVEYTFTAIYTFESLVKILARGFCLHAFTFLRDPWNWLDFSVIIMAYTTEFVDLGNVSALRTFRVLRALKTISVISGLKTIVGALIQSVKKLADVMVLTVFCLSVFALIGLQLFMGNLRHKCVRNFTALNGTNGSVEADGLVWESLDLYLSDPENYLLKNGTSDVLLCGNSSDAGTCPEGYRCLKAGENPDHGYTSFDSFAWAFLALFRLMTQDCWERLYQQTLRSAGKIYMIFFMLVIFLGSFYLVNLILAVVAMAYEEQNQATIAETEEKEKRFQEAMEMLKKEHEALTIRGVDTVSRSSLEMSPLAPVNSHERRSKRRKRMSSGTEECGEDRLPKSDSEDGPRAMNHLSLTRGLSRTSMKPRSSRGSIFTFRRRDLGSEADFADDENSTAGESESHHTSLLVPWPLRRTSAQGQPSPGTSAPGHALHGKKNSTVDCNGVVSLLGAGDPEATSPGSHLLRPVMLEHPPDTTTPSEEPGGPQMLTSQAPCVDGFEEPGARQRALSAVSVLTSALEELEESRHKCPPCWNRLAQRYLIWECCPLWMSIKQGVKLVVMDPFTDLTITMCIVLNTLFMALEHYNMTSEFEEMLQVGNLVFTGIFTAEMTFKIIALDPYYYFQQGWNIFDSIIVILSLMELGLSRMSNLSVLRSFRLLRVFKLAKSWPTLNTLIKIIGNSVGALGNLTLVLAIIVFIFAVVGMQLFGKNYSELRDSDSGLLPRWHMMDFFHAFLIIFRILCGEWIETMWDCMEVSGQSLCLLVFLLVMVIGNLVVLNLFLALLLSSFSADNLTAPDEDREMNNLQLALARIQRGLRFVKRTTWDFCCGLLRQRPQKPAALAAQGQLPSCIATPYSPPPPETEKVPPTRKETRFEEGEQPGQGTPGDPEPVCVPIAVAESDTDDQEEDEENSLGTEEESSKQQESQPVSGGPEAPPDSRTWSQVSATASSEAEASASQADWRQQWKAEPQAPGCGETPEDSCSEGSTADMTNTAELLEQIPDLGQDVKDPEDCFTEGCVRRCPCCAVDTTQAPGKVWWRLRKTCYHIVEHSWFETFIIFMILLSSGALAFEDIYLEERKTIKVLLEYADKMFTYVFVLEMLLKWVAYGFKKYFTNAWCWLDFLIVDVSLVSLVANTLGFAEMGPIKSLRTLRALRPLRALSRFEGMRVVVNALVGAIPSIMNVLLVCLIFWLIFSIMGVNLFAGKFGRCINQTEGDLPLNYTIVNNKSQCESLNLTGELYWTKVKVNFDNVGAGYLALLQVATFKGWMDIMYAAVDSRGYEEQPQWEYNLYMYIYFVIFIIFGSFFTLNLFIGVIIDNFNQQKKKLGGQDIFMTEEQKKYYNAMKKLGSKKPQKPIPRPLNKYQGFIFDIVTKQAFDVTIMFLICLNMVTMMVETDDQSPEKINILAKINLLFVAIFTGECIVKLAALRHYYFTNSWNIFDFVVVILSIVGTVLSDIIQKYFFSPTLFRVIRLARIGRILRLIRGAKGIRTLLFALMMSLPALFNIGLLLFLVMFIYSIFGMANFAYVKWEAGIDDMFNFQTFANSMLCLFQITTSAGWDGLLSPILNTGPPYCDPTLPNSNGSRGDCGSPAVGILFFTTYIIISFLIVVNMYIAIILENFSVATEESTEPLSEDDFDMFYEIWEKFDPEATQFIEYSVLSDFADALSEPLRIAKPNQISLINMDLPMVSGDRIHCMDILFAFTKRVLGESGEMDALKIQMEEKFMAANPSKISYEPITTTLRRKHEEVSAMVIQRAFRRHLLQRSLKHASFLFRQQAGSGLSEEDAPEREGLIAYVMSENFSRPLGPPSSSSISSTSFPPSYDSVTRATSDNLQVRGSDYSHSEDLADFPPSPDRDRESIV
Protocol: Whole-cell patch-clamp was used to directly measure inward sodium currents in HEK-293 cells expressing the human cardiac sodium channel, SCNSA. After reach steady-state effect in the presence of drug, rate-dependence was assessed by stimulation at frequencies of 1 Hz and 4 Hz. Experiments were carried out using an aqueous buffer at pH 7.4 and at room temperature. There is no protein in the buffer and drug concentrations reported are nominal free drug levels. Test article was evaluated up to 10 μM (protein-free buffer). […] Data is reported as percent inhibition at a fixed concentration.

[6] = Electrocardiography in anesthetized rabbits (rabbit in vivo EP effect)
Protocol: A dose-response study of test compound was conducted in anesthetized rabbits to assess the cardiac electrophysiologic profile established in the cellular ion channel assays.
Experiments were performed in propofol-fentanyl anesthetized closed-chest male rabbits. A body surface electrocardiogram (ECG) and an intra-cardiac His-bundle electrogram were continuously monitored and recorded during the studies, using a PoNeMah system and a Prucka electrophysiological recording system, respectively. Test compound was prepared on the day of study in a vehicle of PEG400:ethanol:water (1:1:1) at a dosing concentration of 30 mg/mL. Test compound (n=3) or vehicle (n=3) was given intravenously over 5 minutes via an infusion pump at incremental doses of 3, 10 and 30 mg/kg. The interval between doses was 10 minutes, allowing for a 5-minute test agent infusion and a 5-minute rest period. Blood was sampled at baseline (pre-drug infusion) and immediately at the end of each infusion. For the 30 mg/kg dose, additional blood samples were taken at 10, 20 and 30 minutes after the end of infusion.
PR interval, QRS duration and QT interval were averaged from a 1 minute ECG recording period at time of blood sampling. QT interval was corrected for heart rate effects using both Fridericia (QTcf) and Van der Water (QTcv) formulae. AH and HV intervals, representing A-V node conduction and His-Purkinje conduction, respectively, were assessed by manual measurements from the His-bundle electrogram. Data were expressed as percent change from pre-drug baseline (mean±SEM) for PR, QRS, AH and HV intervals as well as delta change from the pre-drug infusion baseline (mean±SEM) for QTc intervals. Changes of 10% in PR, QRS, and AH intervals, and 20% in HV interval, as well as >10 ms in QTc interval are considered significant based on experience with the model.

[7] = Single-dose pharmacokinetics in dogs; assay type: in vivo; details: male, beagle, dog, plasma
Protocol: Serial blood samples were collected for all studies at various time points post dose (0.17 (or 0.25 for oral), 0.5, 0.75, 1, 2, 4, 6, 8 and 24 h, for example). Plasma samples were analyzed by LC-MS/MS.

[8] = oral solution, read-out: Rat oral bioavailability when dosed as solution

| SMILES | Human Liver Microsomal Metabolism % remaining (Assay Conditions A) [1] | Human Liver Microsomal Metabolism % remaining (Assay Conditions B) [2] | clearance [3] [mL/min/kg] | bioavailability [3, 8] [%] | PXR EC60 [4] | other results |
| --- | --- | --- | --- | --- | --- | --- |
| CC(C)[C@@H](NC(=O)C1CCCC1)C(=O)N1CC[C@](O)(c2ccc(Cl)cc2)C(C)(C)C1 [Example 460] | 47% | 16% | 10 | 8 |  |  |
| CC(C)CC(=O)N[C@@H](C(=O)N1CC[C@](O)(c2ccc(Cl)cc2)C(C)(C)C1)C(C)C [Example 466] | 67% | 33% |  |  | 1.12 (EC60) μM |  |
| CC(C)[C@@H](NC(=O)c1cccc(S(N)(=O)=O)c1)C(=O)N1CC[C@](O)(c2ccc(Cl)cc2)C(C)(C)C1 [Example 491] |  |  | 67 | 23 |  | inhibition at 10 µM [5]: 13%; Cmax: Free drug (at NOEL dose) ([6]; at NOEL dose, free drug): 3.1 µM; Cmax: Free drug (at QT effect dose) ([6]; at QT effect dose, free drug): 5.5 µM; NOEL dose ([6]; i.v. infusion): 10 mg/kg; QT effect Dose ([6]; i.v. infusion 3, 10, 30 mg/kg): 30 mg/kg; QTcf, delta ([6]; i.v. infusion, change from pre-drug baseline): +17 ms; bioavailability ([3]; crystalline suspension in aqueous medium, read-out: Relative bioavailability when dosed as a crystalline suspension): 0%; clearance ([7]; intravenous): 7.9 mL/min/kg; bioavailability ([7]; oral solution, read-out: dog oral bioavailability when dosed as solution): 100% |
| CC(C)NC(=O)N[C@@H](C(=O)N1CC[C@](O)(c2ccc(Cl)cc2)C(C)(C)C1)C(C)C [Example 850] | 99% (A) |  |  |  | 10.2 (EC60) μM |  |
| CC[C@@H](C)NC(=O)N[C@@H](C(=O)N1CC[C@](O)(c2ccc(Cl)cc2)C(C)(C)C1)C(C)C [Example 897] | 59% (A) |  |  |  | >50 (EC60) μM |  |
| CC(C)[C@@H](NC(=O)CC(C)(C)O)C(=O)N1CC[C@](O)(c2ccc(Cl)cc2)C(C)(C)C1 [Example 1356] | 100% (A)/100% (B) | 100% (A)/100% (B) |  |  |  |  |
